The text below walks through data of patent US20240092791A1, “DIHYDROFUROPYRIDINE DERIVATIVES AS RHO-KINASE INHIBITORS” (CHIESI FARMACEUTICI S.P.A., priority 2020, published 2024).

For one assay, the target named is Rho kinase 1 (ROCK1) (Homo sapiens, UniProt Q13464). In words: In vitro inhibitory activity assay ROCK1 (ADP-Glo). It counts as biochemical. Particulars: ATP 200 μM, Cheng-Prusoff from IC50; read-out: ROCK 1 (Ki, range of activity). As to the method: (§1) The effectiveness of compounds of the present invention to inhibit Rho kinase activity can be determined in a 10 μl assay containing 40 mM Tris pH7.5, 20 mM MgCl2 0.1 mg/mL BSA, 50 μM DTT and 2.5 μM peptide substrate (Myelin Basic Protein) using an ADP-Glo kit (Promega). Compounds were dissolved in DMSO such that the final concentration of DMSO was 1% in the assay. All reactions/incubations are performed at 25° C. Compound (2 ul) and either Rho kinase 1 or 2 (4 μl) were mixed and incubated for 30 mins. Reactions were initiated by addition of ATP (4μ1) such that the final concentration of ATP in the assay was 200 μM. After a 1 hour incubation 10 μl of ADP-Glo Reagent was added and after a further 1 hour incubation 20 ul of Kinase Detection Buffer was added and the mixture incubated for a further 45 minutes. The luminescent signal was measured on a luminometer. […] Compounds were tested in dose-response format and the inhibition of kinase activity was calculated at each concentration of compound. To determine the IC50 (concentration of compound required to inhibit 50% of the enzyme activity) data were fit to a plot of % inhibition vs Log10 compound concentration using a sigmoidal fit with a variable slope and fixing the maximum to 100% and the minimum to 0%. To determine the Ki values the Cheng-Prusoff equation was utilized (Ki=IC50/(1+[S]/Km).

The next assay has as its target PKA (Homo sapiens, UniProt P17612). The assay is described as follows: In vitro inhibitory activity assay for PKA (ADP-Glo), reported as selectivity ratio vs ROCK2. Type of assay: biochemical. To be noted: Ki value for PKA divided by Ki value of ROCK2. As to the method: The effectiveness of compounds of the present invention to inhibit PKA activity can be determined in a 10 μl assay containing 40 mM Tris pH7.5, 20 mM MgCl2 0.1 mg/ml BSA, 50 μM DTT and 260 μM peptide substrate (kemptide) using an ADP-Glo kit (Promega). Compounds were dissolved in DMSO such that the final concentration of DMSO was 1% in the assay. All reactions/incubations are performed at 25° C. Compound and PKA enzyme (6 μl) were mixed and incubated for 30 mins. Reactions were initiated by addition of ATP (4 μl ) such that the final concentration of ATP in the assay was 10 μM. After a 30 minute incubation 10 μl of ADP-Glo Reagent was added and after a further 1 hour incubation 20 μl of Kinase Detection Buffer was added and the mixture incubated for a further 45 minutes. The luminescent signal was measured on a luminometer. […] Compounds were tested in dose-response format and the inhibition of kinase activity was calculated at each concentration of compound. To determine the IC50 (concentration of compound required to inhibit 50% of the enzyme activity) data were fit to a plot of % inhibition vs Logio compound concentration using a sigmoidal fit with a variable slope and fixing the maximum to 100% and the minimum to 0%. To determine the Ki values the Cheng-Prusoff equation was utilized (Ki=IC50/(1+[S]/Km).
In vitro inhibitory activities for PKA were reported as selectivity ratio vs. ROCK-2.
A general note: In ADP-Glo the light output rises with the ADP produced.

A further assay addresses Rho kinase 2 (ROCK2) (Homo sapiens, UniProt O75116). In words: In vitro inhibitory activity assay ROCK2 (ADP-Glo). Particulars: ATP 200 μM, Cheng-Prusoff from IC50; read-out: ROCK2 (Ki, range of activity). Type of assay: biochemical. As to the method: as §1
Assay [1] relates to cch-evoked bronchoconstriction. The assay is described as follows: Experimental bronchospasm (carbachol-induced bronchoconstriction, Konzett & Roessler). To be noted: iv, rat, 1 hour after administration, carbachol 80 μg/kg i.v., read-out: Inhibition % (±s.e. mean) of cch-evoked bronchoconstriction; for inhibition in vivo at 0.01 mg/kg: dose 10 μg/Kg intratracheal. Type of assay: in vivo, Male CD Sprague Dawley rats. As to the method:
Male CD Sprague Dawley rats (220-250 g) were purchased from Charles River Laboratories Italy (Calco, Lecco). Prior to use animals were acclimated for at least 5 days 20 to the local vivarium conditions (room temperature: 20-24° C.; relative humidity: 40-70%), having free access to standard rat chow and softened tap water. All the procedures were performed in animal operating rooms according to ethical guidelines for the conduct of animal research (D. L.vo 116/92).
Rats were anaesthetized with a combination of anesthetics (Zoletil 20 mg/kg+Xylazine 5 mg/kg, ip) for the i.t. administration. A laryngoscope was moved forward into the mouth to visualize the trachea and guide the insertion of the tip of a custom-made small diameter cannula directly into the trachea and located 1-2 mm above the bifurcation.
In order to assess the residual inhibitory activity of test compounds 1 hour after their administration, rats were surgically prepared. Body temperature was kept constant at 37° C. by a heated blanket.
The trachea was cannulated and the lungs were ventilated artificially with a constant volume ventilator (rodent ventilator mod. 7025, Ugo Basile, Comerio, Varese, Italy) at a frequency of 80 strokes/min and at a tidal volume of 10 ml/kg. To avoid spontaneous breathing, the animals were injected intravenously (i.v.) with pancuronium bromide (2 mg/kg).
Bronchoconstriction was induced by the i.v. injection of carbachol (cch) 80 μg/kg. In control experiments, repeated injections of this dose produced reproducible short-lasting (1-2 min duration) bronchospasms. Bronchoconstriction, quantified as a reduction of tidal volume, was evaluated according to the method described by Konzett & Roessler (1). Systemic blood pressure and changes in airway resistance were monitored with a digital pressure transducer.
After stabilisation of artificial breathing and blood pressure, animals were injected (i.v.) with cch every 3 min, until 3 stable and reproducible basal responses were obtained. […] The effect of test compounds was 15 expressed as % inhibition of cch-evoked bronchoconstriction in time-matched, vehicle-treated, animals (controls).
Tested compounds were dissolved in dH2O and 1% Tween-80 or 0,001% HCl and further diluted to target concentrations. Tested compounds were instilled locally into the trachea in a volume of 125 μl.
All data are presented as mean±s.e.mean. The % inhibition of experimental bronchospasm was calculated comparing the drug-treated with the vehicle-treated control animals. Data analysis was performed using GraphPad Prism software.

A value given as a limit tells only on which side of the number the result lay.

Chain of Rho kinase 2 (ROCK2) (O75116 whole entry): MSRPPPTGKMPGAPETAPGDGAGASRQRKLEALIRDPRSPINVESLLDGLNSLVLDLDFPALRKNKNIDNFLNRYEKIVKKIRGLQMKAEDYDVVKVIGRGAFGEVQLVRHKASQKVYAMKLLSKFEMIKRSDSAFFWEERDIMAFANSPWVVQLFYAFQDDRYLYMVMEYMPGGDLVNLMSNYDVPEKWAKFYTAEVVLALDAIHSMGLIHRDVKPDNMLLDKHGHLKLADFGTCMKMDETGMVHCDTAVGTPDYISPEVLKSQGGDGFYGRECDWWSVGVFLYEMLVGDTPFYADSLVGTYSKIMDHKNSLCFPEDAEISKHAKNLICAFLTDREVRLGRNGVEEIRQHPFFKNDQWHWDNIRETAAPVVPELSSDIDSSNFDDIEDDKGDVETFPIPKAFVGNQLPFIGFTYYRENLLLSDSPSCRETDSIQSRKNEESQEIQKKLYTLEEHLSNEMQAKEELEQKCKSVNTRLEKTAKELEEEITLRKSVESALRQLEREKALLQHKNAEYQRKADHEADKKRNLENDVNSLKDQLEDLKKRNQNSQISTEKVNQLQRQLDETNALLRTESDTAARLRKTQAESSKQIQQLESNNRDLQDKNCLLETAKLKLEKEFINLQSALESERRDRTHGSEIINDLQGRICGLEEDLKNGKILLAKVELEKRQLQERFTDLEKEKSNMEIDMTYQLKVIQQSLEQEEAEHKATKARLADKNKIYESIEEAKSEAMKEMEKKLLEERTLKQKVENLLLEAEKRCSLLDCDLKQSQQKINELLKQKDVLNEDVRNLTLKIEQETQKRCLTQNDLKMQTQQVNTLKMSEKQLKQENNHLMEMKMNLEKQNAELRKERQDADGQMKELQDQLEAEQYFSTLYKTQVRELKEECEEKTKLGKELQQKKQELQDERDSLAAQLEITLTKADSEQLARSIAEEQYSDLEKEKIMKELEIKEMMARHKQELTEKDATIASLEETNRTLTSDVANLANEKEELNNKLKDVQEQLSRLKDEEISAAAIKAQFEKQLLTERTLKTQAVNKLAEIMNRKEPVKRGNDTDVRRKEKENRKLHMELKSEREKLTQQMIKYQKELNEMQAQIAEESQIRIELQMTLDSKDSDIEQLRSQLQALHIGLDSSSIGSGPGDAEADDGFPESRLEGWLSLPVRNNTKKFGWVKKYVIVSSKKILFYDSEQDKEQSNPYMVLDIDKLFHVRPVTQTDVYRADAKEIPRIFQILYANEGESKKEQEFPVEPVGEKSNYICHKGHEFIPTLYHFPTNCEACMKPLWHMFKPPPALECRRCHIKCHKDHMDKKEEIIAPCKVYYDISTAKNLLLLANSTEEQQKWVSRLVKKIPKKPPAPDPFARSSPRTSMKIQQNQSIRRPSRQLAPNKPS
Chain of Rho kinase 1 (ROCK1) (Q13464 whole entry): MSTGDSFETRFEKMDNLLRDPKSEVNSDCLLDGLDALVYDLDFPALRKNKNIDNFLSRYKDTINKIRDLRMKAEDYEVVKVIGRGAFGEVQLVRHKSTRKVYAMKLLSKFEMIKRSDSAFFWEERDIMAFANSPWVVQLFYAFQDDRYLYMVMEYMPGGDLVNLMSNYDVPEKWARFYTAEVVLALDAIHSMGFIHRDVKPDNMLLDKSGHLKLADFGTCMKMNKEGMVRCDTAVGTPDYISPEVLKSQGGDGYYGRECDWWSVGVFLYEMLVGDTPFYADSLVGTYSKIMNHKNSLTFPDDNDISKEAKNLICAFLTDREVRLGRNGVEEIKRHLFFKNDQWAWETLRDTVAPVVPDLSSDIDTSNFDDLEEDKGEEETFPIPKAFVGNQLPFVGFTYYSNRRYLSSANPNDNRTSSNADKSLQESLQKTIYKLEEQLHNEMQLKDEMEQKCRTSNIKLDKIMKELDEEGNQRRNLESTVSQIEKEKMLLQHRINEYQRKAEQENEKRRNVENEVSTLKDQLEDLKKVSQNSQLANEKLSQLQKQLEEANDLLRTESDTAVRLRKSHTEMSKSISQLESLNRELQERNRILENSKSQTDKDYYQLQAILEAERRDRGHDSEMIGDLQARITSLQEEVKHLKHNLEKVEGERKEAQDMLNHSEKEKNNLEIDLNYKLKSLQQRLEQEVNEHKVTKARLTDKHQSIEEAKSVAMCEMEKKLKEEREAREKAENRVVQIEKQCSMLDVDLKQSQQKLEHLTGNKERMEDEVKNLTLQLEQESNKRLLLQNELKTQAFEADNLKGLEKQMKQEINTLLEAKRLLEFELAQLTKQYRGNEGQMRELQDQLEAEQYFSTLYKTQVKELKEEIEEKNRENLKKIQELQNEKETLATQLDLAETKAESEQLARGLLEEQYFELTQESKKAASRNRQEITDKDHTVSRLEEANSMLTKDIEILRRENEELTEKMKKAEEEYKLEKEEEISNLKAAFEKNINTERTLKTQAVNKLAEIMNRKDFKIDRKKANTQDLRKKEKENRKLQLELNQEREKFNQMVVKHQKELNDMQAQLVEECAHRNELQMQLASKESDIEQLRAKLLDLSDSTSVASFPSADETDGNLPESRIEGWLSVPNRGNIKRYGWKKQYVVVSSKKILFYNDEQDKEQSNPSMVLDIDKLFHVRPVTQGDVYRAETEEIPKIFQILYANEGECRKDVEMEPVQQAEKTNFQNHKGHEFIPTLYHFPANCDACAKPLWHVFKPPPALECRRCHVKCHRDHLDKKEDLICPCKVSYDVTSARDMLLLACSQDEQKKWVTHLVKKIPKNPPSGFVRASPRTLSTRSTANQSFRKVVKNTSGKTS

With `CN1C[C@@H]2C[C@H]1CN2c1ccc(NC(=O)c2cccc(CNc3ncc(-c4ccnc(N)n4)c4c3CCO4)c2)nc1` [Example 76, 3-(((7-(2-aminopyrimidin-4-yl)-2,3-dihydrofuro[3,2-c]pyridin-4-yl)amino)methyl)-N-(5-((1S,4S)-5-methyl-2,5-diazabicyclo[2.2.1]heptan-2-yl)pyridin-2-yl)benzamide], the Ki at Rho kinase 1 (ROCK1) and at Rho kinase 2 (ROCK2) was at most 3 nM in each case. On PKA, the “Ratio (PKA/ROCK2)” value is reported as “** (5≤ratio<10)”.
In the case of `Nc1nccc(-c2cnc(NCc3cccc(C(=O)Nc4ccc(N5CCCNCC5)cn4)c3)c3c2OCC3)n1` [Example 72, N-(5-(1,4-diazepan-1-yl)pyridin-2-yl)-3-(((7-(2-aminopyrimidin-4-yl)-2,3-dihydrofuro[3,2-c]pyridin-4-yl)amino)methyl)benzamide], the Ki on Rho kinase 1 (ROCK1) and at Rho kinase 2 (ROCK2) was at most 3 nM each time. Also, on PKA, the “Ratio (PKA/ROCK2)” value is “*** (ratio≥10)”.
`CNC1(COc2ccc(NC(=O)c3cccc(CNc4ncc(-c5ccnc(N)n5)c5c4CCO5)c3)nc2)CCOCC1` [Example 80, 3-(((7-(2-aminopyrimidin-4-yl)-2,3-dihydrofuro[3,2-c]pyridin-4-yl)amino)methyl)-N-(5-((4-(methylamino)tetrahydro-2H-pyran-4-yl)methoxy)pyridin-2-yl)benzamide]: the Ki at Rho kinase 1 (ROCK1) and at Rho kinase 2 (ROCK2) was at most 3 nM throughout. For the same compound, on PKA, the “Ratio (PKA/ROCK2)” value is “*** (ratio≥10)”. In assay [1], the inhibition in vivo at 0.01 mg/kg was determined as 85.7 ± 0.8%.
In the case of `CN1CCN(C)C(COc2ccc(NC(=O)c3cccc(CNc4ncc(-c5ccnc(N)n5)c5c4CCO5)c3)nc2)C1` (single isomer, unassigned) [Example 83, 3-(((7-(2-aminopyrimidin-4-yl)-2,3-dihydrofuro[3,2-c]pyridin-4-yl)amino)methyl)-N-(5-((1,4-dimethylpiperazin-2-yl)methoxy)pyridin-2-yl)benzamide], the Ki on Rho kinase 1 (ROCK1) and on Rho kinase 2 (ROCK2) was at most 3 nM each time. Also, the “Ratio (PKA/ROCK2)” value on PKA is given as “*** (ratio≥10)”. Moreover, in assay [1] (dose 3 μg/Kg intratracheal), the inhibition in vivo at 0.003 mg/kg amounted to 53.3 ± 4.6%.
With `CNCCNc1ccc(NC(=O)c2cccc(CNc3ncc(-c4ccnc(N)n4)c4c3CCO4)c2)nc1` [Example 70, 3-(((7-(2-aminopyrimidin-4-yl)-2,3-dihydrofuro[3,2-c]pyridin-4-yl)amino)methyl)-N-(5-((2-(methylamino)ethyl)amino)pyridin-2-yl)benzamide], the Ki at Rho kinase 1 (ROCK1) and on Rho kinase 2 (ROCK2) was at most 3 nM in each case. Further, the “Ratio (PKA/ROCK2)” value on PKA is reported as “*** (ratio≥10)”. Besides, in assay [1], the inhibition in vivo at 0.01 mg/kg was 62.2 ± 7%.
For `C[C@@H]1CN[C@@H](C)CN1c1ccc(NC(=O)c2cccc(CNc3ncc(-c4ccnc(N)n4)c4c3CCO4)c2)nc1` [Example 67], the Ki at Rho kinase 1 (ROCK1) and on Rho kinase 2 (ROCK2) was at most 3 nM throughout. Further, the “Ratio (PKA/ROCK2)” value at PKA is “*** (ratio≥10)”.
Take `CNC(=O)c1cccc(CNc2ncc(-c3ccncn3)c3c2CCO3)c1` [Example A, N-Methyl-3-(((7-(pyrimidin-4-yl)-2,3-dihydrofuro[3,2-c]pyridin-4-yl)amino)methyl)benzamide, reference compound]: the Ki at Rho kinase 1 (ROCK1) and on Rho kinase 2 (ROCK2) was over 30 nM each time. For the same compound, the “Ratio (PKA/ROCK2)” value on PKA was “** (5≤ratio<10)”.
As to `CNC(=O)c1cccc(CNc2ncc(-c3ccnc(N)n3)c3c2OCC3)c1` [Example B, 3-(((4-(2-aminopyrimidin-4-yl)-2,3-dihydrofuro[2,3-c]pyridin-7-yl)amino)methyl)-N-methylbenzamide, reference compound], the Ki on Rho kinase 1 (ROCK1) and at Rho kinase 2 (ROCK2) was over 30 nM throughout. The “Ratio (PKA/ROCK2)” value on PKA is given as “*** (ratio≥10)”.
Regarding `Nc1nccc(-c2cnc(NCc3ccccc3)c3c2OCC3)n1` [Example C, 7-(2-Aminopyrimidin-4-yl)-N-benzyl-2,3-dihydrofuro[3,2-c]pyridin-4-amine, reference compound], the Ki was over 30 nM at Rho kinase 1 (ROCK1) and 3 to 30 nM at Rho kinase 2 (ROCK2). The “Ratio (PKA/ROCK2)” value at PKA is listed as “* (ratio<5)”.
The like results for `Nc1nccc(-c2cnc(NCc3cccc(C(=O)Nc4ccc(N5C[C@H]6C[C@@H]5CN6)cn4)c3)c3c2OCC3)n1` [Example 68, N-(5-((1R,4R)-2,5-diazabicyclo[2.2.1]heptan-2-yl)pyridin-2-yl)-3-(((7-(2-aminopyrimidin-4-yl)-2,3-dihydrofuro[3,2-c]pyridin-4-yl)amino)methyl)benzamide] were, in that order, at most 3 nM, at most 3 nM and “*** (ratio≥10)”.
Consider `CN(C)CCN(C)c1ccc(NC(=O)c2cccc(CNc3ncc(-c4ccnc(N)n4)c4c3CCO4)c2)nc1` [Example 75, 3-(((7-(2-aminopyrimidin-4-yl)-2,3-dihydrofuro[3,2-c]pyridin-4-yl)amino)methyl)-N-(5-((2-(dimethylamino)ethyl)(methyl)amino)pyridin-2-yl)benzamide], for which the Ki at Rho kinase 1 (ROCK1) and at Rho kinase 2 (ROCK2) was at most 3 nM in each case. The “Ratio (PKA/ROCK2)” value at PKA is “*** (ratio≥10)”.
Consider `CN1CC[C@@H]1COc1ccc(NC(=O)c2cccc(CNc3ncc(-c4ccnc(N)n4)c4c3CCO4)c2)nc1` [Example 81, (R)-3-(((7-(2-aminopyrimidin-4-yl)-2,3-dihydrofuro[3,2-c]pyridin-4-yl)amino)methyl)-N-(5-((1-methylazetidin-2-yl)methoxy)pyridin-2-yl)benzamide], for which the Ki on Rho kinase 1 (ROCK1) and at Rho kinase 2 (ROCK2) was at most 3 nM in each case. Also, in assay [1], the inhibition in vivo at 0.01 mg/kg worked out at 81.3 ± 7.9%.
As to `CN1CCC(C(=O)N2CCN(c3ccc(NC(=O)c4cccc(CNc5ncc(-c6ccnc(N)n6)c6c5CCO6)c4)nc3)CC2)CC1` [Example 65, 3-(((7-(2-aminopyrimidin-4-yl)-2,3-dihydrofuro[3,2-c]pyridin-4-yl)amino)methyl)-N-(5-(4-(1-methylpiperidine-4-carbonyl)piperazin-1-yl)pyridin-2-yl)benzamide], the Ki on Rho kinase 1 (ROCK1) and on Rho kinase 2 (ROCK2) was at most 3 nM throughout. The “Ratio (PKA/ROCK2)” value on PKA was “*** (ratio≥10)”.

The Ki is the dissociation constant of the complex between target and ligand, obtained from inhibition or displacement.
